Measurements published in PMC5007443, “TNIK inhibition abrogates colorectal cancer stemness” (Nature Communications, 2016).
pIC50: −log10 of the molar value.

Tests used:
[1] = system: TCF/LEF transcriptional activity of spheroid clone #6 Cl. 2; assay: Spheroid TCF/LEF GFP reporter assay; assay type: cell-based; details: Homo sapiens, read-out: IC50, reduction of cells expressing Wnt-driven GFP
Excerpt: Lentiviral gene transfer of the reporter gene was used to evaluate the TCF/LEF transcriptional activity of patient-derived spheroids due to their poor transfection efficiency. Spheroids were infected with TCF/LEF reporter lentiviral particles encoding the green fluorescent protein (GFP) gene under the control of the TCF/LEF-responsive promoter (Cignal Lenti TCF/LEF Reporter (GFP) (Qiagen)) or relevant negative control lentiviral particles (Cignal Lenti negative control (GFP) (Qiagen)) at a multiplicity of infection of 10 in the presence of 4 μg ml^−1 SureEntry Transduction Reagent (Qiagen) for 24 h. GFP-positive spheroids were cloned by limiting dilution in the presence of 2 μg ml^−1 puromycin (Sigma-Aldrich; Fig. 6a,b).
GFP-positive cells were detected using the Guava easy Cyte HT flow cytometer (Fig. 6c). Experiments were performed in triplicate and repeated at least two times.

[2] = system: PDX COX026; assay: Patient-derived xenograft COX026 in Nu/Nu nude mice; assay type: in vivo, mouse; details: COX026, NCB-0846 HCl oral 45 or 90 mg/kg BID, 5-day on, 2-day off
Procedure: (§1) Patient-derived colorectal cancer xenografts […] were established by Shanghai ChemPartner. Female Nu/Nu nude mice aged 5–6 weeks were implanted subcutaneously with the xenografts and randomized into three treatment groups (10 mice per group) based on the developed tumour volume (∼200 mm^3).
(§2) Tumour volume was estimated based on the formula: (length × width^2)/2. The tumour volume (twice a week) and body weight (every day) of each mouse were recorded. The patient-derived spheroids and xenografts were established after obtaining informed consent from the donors.

[3] = system: patient-derived colon cancer spheroid #6 xenograft; assay: Xenograft of patient-derived spheroid #6 in NOD/ShiJic-scid mice; assay type: in vivo, mouse; details: NCB-0846 HCl oral 50 or 100 mg kg−1 BID, 6-days-on, 1-day-off
Excerpt: (§3) Patient-derived colorectal cancer spheroids were dissociated, resuspended in medium containing 50% Matrigel (Corning), and inoculated subcutaneously (#6; 1 × 10^4 cells per injection, #19; 1 × 10^5 cells per injection) into the flank of female NOD/ShiJic-scid mice (4-week-old females; CLEA Japan). When the tumour volume reached ∼200 mm^3, the mice were randomized according tumour volume (10 mice per group) and treatment was started.
as §2

[4] = system: patient-derived colon cancer spheroid #19 xenograft; assay: Xenograft of patient-derived spheroid #19 in NOD/ShiJic-scid mice; assay type: in vivo, mouse; details: NCB-0846 HCl oral 50 or 100 mg kg−1 BID, 6-days-on, 1-day-off
Excerpt: as §3, §2

[5] = system: TNIK, AXIN2, c-MYC, LRP6, LRP5 proteins; assay: Immunoblotting of TNIK, AXIN2, c-MYC, LRP6, LRP5 in HCT116 and DLD-1 cells; assay type: cell-based, human; details: HCT116 and DLD-1, 48 h
Procedure: (§4) Protein samples were fractionated by SDS–PAGE and blotted onto Immobilon-P membranes (Millipore) as described previously. After incubation with the primary antibodies (listed in Supplementary Table 4) at 4 °C overnight, the blots were detected with the relevant horseradish peroxidase-conjugated anti-mouse or anti-rabbit IgG antibody (Cell Signaling Technology) and Western lighting ECL Pro (PerkinElmer). Signals were visualized with the LAS-4010 system (GE Healthcare). Uncropped versions of the blots in Figs 2e and 3f are shown in Supplementary Fig. 15.

[6] = system: Wnt target genes (AXIN2, MYC, CCND1) and TNIK; assay: RT-PCR of TNIK and Wnt target genes in HCT116 cells; assay type: cell-based, human; details: HCT116, 24 h
Procedure: (§5) Total RNA was prepared with an RNeasy Mini Kit (Qiagen). cDNA was synthesized using SuperScript II reverse transcriptase (Thermo Fisher Scientific) or a High-Capacity cDNA reverse transcription kit (Thermo Fisher Scientific) and subjected to TaqMan gene expression assay using pre-designed primer and probe sets (listed in Supplementary Table 3). Amplification data measured as an increase in reporter fluorescence were collected using the StepOne Real-Time PCR System (Thermo Fisher Scientific). The relative mRNA expression level normalized to the internal control (human/mouse β-actin (ACTB/Actb1) gene) was calculated by the comparative threshold cycle (CT) method. Experiments were performed in triplicate and repeated at least two times.

[7] = system: HCT116 cells; assay: PARP-1 cleavage, immunoblotting; assay type: cell-based, human; details: HCT116, 1 μM, 24 or 48 h
Procedure: as §4

[8] = system: HCT116 cells; assay: Soft-agar colony-formation assay; assay type: cell-based; details: Homo sapiens, HCT-116, 336 h; HCT116, 14 days
Procedure: One milliliter of 0.33% agar (Lonza) in culture medium containing 1.5 × 10^4 cells was plated onto 1 ml of solidified base agar (0.5%) in each well of six-well clusters. The top agar layer was covered with culture medium containing serially diluted compounds. The medium was replaced every three days. Cell number was determined colorimetrically at 450–650 nm using the Cell Count Reagent SF (Nacalai Tesque). IC50 values were obtained by fitting a four-parameter dose–response curve to normalized data using GraphPad Prism version 5 (GraphPad software; Fig. 3b). Experiments were performed in triplicate and repeated at least two times.

[9] = system: Wnt-target genes (AXIN2, MYC and CCND1); assay: Pharmacodynamics: Wnt-target gene expression in HCT116 xenografts, RT-PCR; assay type: in vivo, mouse; details: single oral dose 90 or 150 mg kg−1 NCB-0846 HCl
Procedure: as §5

[10] = target: TIE2 (Homo sapiens, UniProt Q02763); assay: Kinase selectivity profiling, TEK tyrosine kinase; assay type: biochemical; details: read-out: Percentage inhibition of TIE2
TIE2, sequence (Q02763 23-1124): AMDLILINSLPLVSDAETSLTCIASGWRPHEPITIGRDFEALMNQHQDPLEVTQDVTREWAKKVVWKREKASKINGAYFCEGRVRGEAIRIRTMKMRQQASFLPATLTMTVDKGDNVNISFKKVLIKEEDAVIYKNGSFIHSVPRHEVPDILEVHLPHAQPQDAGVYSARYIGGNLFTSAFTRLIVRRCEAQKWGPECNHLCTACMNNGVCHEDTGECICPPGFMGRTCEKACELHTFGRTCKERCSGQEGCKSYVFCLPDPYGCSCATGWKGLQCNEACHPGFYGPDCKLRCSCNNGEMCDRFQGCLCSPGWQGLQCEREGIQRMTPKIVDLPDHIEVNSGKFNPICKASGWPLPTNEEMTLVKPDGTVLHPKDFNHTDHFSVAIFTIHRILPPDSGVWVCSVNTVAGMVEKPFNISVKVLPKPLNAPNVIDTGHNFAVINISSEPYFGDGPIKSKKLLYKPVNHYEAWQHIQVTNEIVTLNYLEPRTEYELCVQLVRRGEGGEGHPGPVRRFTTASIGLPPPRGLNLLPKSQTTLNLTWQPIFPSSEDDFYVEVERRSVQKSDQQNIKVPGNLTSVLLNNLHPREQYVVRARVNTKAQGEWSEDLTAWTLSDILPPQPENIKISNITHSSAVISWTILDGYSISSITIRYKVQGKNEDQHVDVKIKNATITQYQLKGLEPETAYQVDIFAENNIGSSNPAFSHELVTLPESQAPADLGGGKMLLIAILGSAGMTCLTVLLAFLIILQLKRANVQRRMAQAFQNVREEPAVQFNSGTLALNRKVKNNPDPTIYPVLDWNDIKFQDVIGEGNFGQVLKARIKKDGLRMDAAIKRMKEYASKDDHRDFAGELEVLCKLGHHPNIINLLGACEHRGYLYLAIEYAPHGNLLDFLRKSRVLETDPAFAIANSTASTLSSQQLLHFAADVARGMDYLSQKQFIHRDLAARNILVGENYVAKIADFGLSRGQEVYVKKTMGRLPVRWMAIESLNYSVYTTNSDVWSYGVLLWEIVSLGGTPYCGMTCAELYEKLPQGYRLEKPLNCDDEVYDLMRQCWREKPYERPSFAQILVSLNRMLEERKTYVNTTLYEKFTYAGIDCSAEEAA
Procedure: The selectivity of compounds against a panel of 50 human protein kinases was assessed using a non-radiometric assay.

[11] = system: CD44 and Ki67 expression in xenografts; assay: Immunohistochemistry of spheroid #6 xenografts; assay type: in vivo, mouse; details: spheroid #6 xenografts resected after treatment
Procedure: Immunoperoxidase staining (Fig. 6g) was performed using the Ventana DABMap detection kit and an automated slide stainer (Discovery XT, Ventana Medical Systems)[56].

[12] = system: PDX COX021; assay: Patient-derived xenograft COX021 in Nu/Nu nude mice; assay type: in vivo, mouse; details: COX021, NCB-0846 HCl oral 45 or 90 mg/kg BID, 5-day on, 2-day off
Procedure: as §1, §2

[13] = system: HCT116 cells; assay: CSC surface marker flow cytometry in HCT116 cells; assay type: cell-based, human; details: HCT116, 1 µM, 96 hours
Procedure: Cells were collected with Accutase, washed with stain buffer (BD Pharmingen), resuspended in 100 μl stain buffer (5 × 10^5 cells per 100 μl), and incubated with fluorophore-conjugated antibodies or their corresponding isotype-matched control antibodies (Supplementary Table 4) at 4 °C for 30 min. The cells were then washed twice and resuspended in 500 μl of stain buffer. 7-Aminoactinomycin D (7AAD; BD Pharmingen) was added to the samples before analysis. Relative fluorescence intensities were measured using a Guava easy Cyte HT flow cytometer following exclusion of dead cells on the basis of 7AAD incorporation. Data analysis was performed using Guava InCyte software (Merck-Millipore). Experiments were performed in triplicate and repeated at least two times.

Compound | pIC50 [1] | growth of the PDXs [2] | growth of tumours [3] | growth of tumours [4] | LRP6 and LRP5 protein expression [5] | expression of TNIK, AXIN2 and cMYC at the protein level [5] | expression of AXIN2 gene [6] | expression of CCND1 gene [6] | expression of MYC gene [6] | expression of TNIK gene [6] | Cleavage of PARP-1 [7] | pIC50 [8] | expression of Wnt-target genes (AXIN2, MYC and CCND1) in xenografts [9] | inhibition at 0.1 µM [10] | CD44 expression in xenografts [11] | Ki67 expression in xenografts [11] | growth of the PDXs [12] | proportion of cells showing high expression of CSC surface markers (CD44, CD133, CD166, CD29 and EpCAM) [13]
O[C@H]1CC[C@@H](Oc2cccc3cnc(Nc4ccc5nc[nH]c5c4)nc23)CC1 [NCB-0846, cis-4-(2-(3H-benzo[d]imidazol-5-ylamino)quinazolin-8-yloxy)cyclohexanol] | 6.32 | significantly suppressed | suppressed | suppressed | downregulated | reduced | reduced | not affected | reduced | reduced | induction of apoptosis | 6.72 | reduced | 4.9% | suppression | modest decrease | significantly suppressed | reduced
O[C@H]1CC[C@H](Oc2cccc3cnc(Nc4ccc5nc[nH]c5c4)nc23)CC1 [NCB-0970] | – | – | – | – | – | – | – | – | – | – | – | 5.41 | – | -2.8% | – | – | – | –
